{
  "source": "patent US7592350B2",
  "about": "“Polycyclic compounds as potent alpha2-adrenoceptor antagonists” (Orion Corporation, priority 2002, dated 2009)",
  "key": {"alpha2A-adrenoceptor": {"molecular_target": "T1, alpha2A-adrenoceptor (Homo sapiens, UniProt P08913)", "T1 sequence (P08913 1-465)": "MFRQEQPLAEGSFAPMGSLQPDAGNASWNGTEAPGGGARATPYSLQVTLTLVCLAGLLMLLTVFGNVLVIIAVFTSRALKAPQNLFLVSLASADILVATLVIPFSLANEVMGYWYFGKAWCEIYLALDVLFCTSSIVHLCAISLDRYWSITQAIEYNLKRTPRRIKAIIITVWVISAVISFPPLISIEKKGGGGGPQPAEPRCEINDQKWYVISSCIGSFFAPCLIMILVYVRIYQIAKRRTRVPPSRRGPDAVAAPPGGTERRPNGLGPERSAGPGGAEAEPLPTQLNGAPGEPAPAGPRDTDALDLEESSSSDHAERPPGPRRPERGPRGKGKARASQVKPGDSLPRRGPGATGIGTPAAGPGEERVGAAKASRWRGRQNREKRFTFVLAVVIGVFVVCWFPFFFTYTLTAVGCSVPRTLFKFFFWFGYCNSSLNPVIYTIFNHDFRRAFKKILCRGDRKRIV", "test": "Radioligand binding to alpha2-adrenoceptors (alpha2A)", "conditions": "calculated Ki from radioligand binding assays; read-out: Binding affinity (Ki) alpha2A"}, "alpha2B-adrenoceptor": {"molecular_target": "T2, alpha2B-adrenoceptor (Homo sapiens, UniProt P18089)", "T2 sequence (P18089 1-450)": "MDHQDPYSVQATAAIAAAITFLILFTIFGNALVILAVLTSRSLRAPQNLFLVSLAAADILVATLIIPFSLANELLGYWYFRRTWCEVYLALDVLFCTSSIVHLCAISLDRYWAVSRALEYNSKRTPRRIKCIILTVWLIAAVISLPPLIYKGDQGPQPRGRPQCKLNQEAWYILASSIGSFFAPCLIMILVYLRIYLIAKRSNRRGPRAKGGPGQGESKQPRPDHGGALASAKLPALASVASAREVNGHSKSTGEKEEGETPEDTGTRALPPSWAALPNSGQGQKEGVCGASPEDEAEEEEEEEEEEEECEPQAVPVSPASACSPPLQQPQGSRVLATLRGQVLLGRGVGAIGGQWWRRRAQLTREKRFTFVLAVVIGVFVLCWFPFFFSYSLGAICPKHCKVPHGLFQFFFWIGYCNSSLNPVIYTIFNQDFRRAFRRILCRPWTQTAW", "test": "Radioligand binding to alpha2-adrenoceptors (alpha2B)", "conditions": "calculated Ki from radioligand binding assays; read-out: Binding affinity (Ki) alpha2B", "excerpt": "Examples of the alpha2-adrenoceptor binding affinities of the compounds including in the present invention are shown in the Table 1. Many of these compouinds are high-affinity ligands for all the alpha2-receptors, but some of them display selectivity for the alpha2C-subtype."}, "alpha2C-adrenoceptor": {"molecular_target": "T3, alpha2C-adrenoceptor (Homo sapiens, UniProt P18825)", "T3 sequence (P18825 1-462)": "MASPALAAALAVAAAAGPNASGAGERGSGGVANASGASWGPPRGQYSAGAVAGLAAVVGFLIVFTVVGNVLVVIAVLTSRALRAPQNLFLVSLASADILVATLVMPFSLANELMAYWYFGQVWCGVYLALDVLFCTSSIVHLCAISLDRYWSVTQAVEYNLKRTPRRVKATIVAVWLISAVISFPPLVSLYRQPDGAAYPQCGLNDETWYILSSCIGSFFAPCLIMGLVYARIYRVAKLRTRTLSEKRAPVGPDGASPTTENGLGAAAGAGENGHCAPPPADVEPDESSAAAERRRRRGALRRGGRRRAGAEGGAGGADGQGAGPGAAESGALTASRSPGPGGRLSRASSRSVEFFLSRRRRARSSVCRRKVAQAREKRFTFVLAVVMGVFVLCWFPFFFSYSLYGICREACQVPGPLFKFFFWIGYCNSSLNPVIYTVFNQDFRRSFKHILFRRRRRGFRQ", "test": "Radioligand binding to alpha2-adrenoceptors (alpha2C)"}, "[1]": {"conditions": "calculated Ki from radioligand binding assays, read-out: Binding affinity (Ki) alpha2C"}},
  "note": "Where two headings read alike, the source gives them in different places.",
  "data": [
    {"smiles": "CC(O)C1CCCN2CCc3c([nH]c4ccccc34)C12", "note": "(stereo not drawn) [Compound P, 1-(1α2,3,4,6,7,12 12bβ-Octahydroindolo[2,3-a]quinolizin-1-yl)-ethanol]", "values": [
      {"measurement": "Ki", "setting": "alpha2A-adrenoceptor", "result": 290, "unit": "nM"},
      {"measurement": "Ki", "setting": "alpha2B-adrenoceptor", "result": 410, "unit": "nM"},
      {"measurement": "Ki", "setting": "alpha2C-adrenoceptor; [1]", "result": 90, "unit": "nM"}
    ]},
    {"smiles": "CCC(C)C1(O)CCCN2CCc3c([nH]c4ccccc34)C21", "note": "(stereo not shown) [Compound C, 1-s-Butyl-1,2,3,4,6,7,12,12bβ-octahydro-indolo[2,3-a]quinolizin-1-ol]", "values": [
      {"measurement": "Ki", "setting": "alpha2A-adrenoceptor", "result": 710, "unit": "nM"},
      {"measurement": "Ki", "setting": "alpha2B-adrenoceptor", "result": 580, "unit": "nM"},
      {"measurement": "Ki", "setting": "alpha2C-adrenoceptor; [1]", "result": 87, "unit": "nM"}
    ]},
    {"smiles": "OC12CCCCC1CCN1CCc3c([nH]c4ccccc34)C12", "note": "(stereo not shown) [Compound F, 2,3,4,4aβ,5,6,7,8,13,13bβ-Decahydro-1H-6a,13-diaza-indeno[1,2-c]phenanthren-13cβ-ol]", "values": [
      {"measurement": "Ki", "setting": "alpha2A-adrenoceptor", "result": 514, "unit": "nM"},
      {"measurement": "Ki", "setting": "alpha2C-adrenoceptor; [1]", "result": 70, "unit": "nM"}
    ]},
    {"smiles": "CC[C@]1(CO)CCCN2CCc3c([nH]c4ccccc34)[C@H]21", "note": "(relative stereo) [Compound M, (1β-Ethyl-1,2,3,4,6,7,12,12bβ-octahydroindolo[2,3-a]quinolizin-1-yl)-methanol]", "values": [
      {"measurement": "Ki", "setting": "alpha2A-adrenoceptor", "result": 440, "unit": "nM"},
      {"measurement": "Ki", "setting": "alpha2B-adrenoceptor", "result": 470, "unit": "nM"},
      {"measurement": "Ki", "setting": "alpha2C-adrenoceptor; [1]", "result": 110, "unit": "nM"}
    ]},
    {"smiles": "CC(C)(C)[C@@H]1CCN2CCc3c([nH]c4ccccc34)[C@@H]2C1", "note": "(relative stereo) [Compound Q, 2β-tert-butyl-1,2,3,4,6,7,12,12bα-octahydro-indolo[2,3-a]quinolizine]", "values": [
      {"measurement": "Ki", "setting": "alpha2A-adrenoceptor", "result": 27, "unit": "nM"},
      {"measurement": "Ki", "setting": "alpha2B-adrenoceptor", "result": 40, "unit": "nM"},
      {"measurement": "Ki", "setting": "alpha2C-adrenoceptor; [1]", "result": 6.4, "unit": "nM"}
    ]},
    {"smiles": "CCC1(O)C(C)CCN2CCc3c([nH]c4ccccc34)C21", "note": "(stereo not drawn) [Compound B, 1α-Ethyl-2α-methyl-1,2,3,4,6,7,12,12bβ-octahydro-indolo[2,3-a]quinoulzin-1-ol]", "values": [
      {"measurement": "Ki", "setting": "alpha2A-adrenoceptor", "result": 130, "unit": "nM"},
      {"measurement": "Ki", "setting": "alpha2B-adrenoceptor", "result": 160, "unit": "nM"},
      {"measurement": "Ki", "setting": "alpha2C-adrenoceptor; [1]", "result": 25, "unit": "nM"}
    ]},
    {"smiles": "CC(C)C1(O)CCCN2CCc3c([nH]c4ccccc34)C21", "note": "(stereo not drawn) [Compound A, 1α-Isopropyl-1,2,3,4,6,7,12,12bβ-octahydroindolo[2,3-a]quinolizin-1-ol]", "values": [
      {"measurement": "Ki", "setting": "alpha2A-adrenoceptor", "result": 480, "unit": "nM"},
      {"measurement": "Ki", "setting": "alpha2B-adrenoceptor", "result": 330, "unit": "nM"},
      {"measurement": "Ki", "setting": "alpha2C-adrenoceptor; [1]", "result": 61, "unit": "nM"}
    ]},
    {"smiles": "CC[C@@H]1CCCN2CCc3c([nH]c4ccccc34)[C@@H]12", "note": "(relative stereo) [Compound J, 1β-ethyl-1,2,3,4,6,7,12,12bβ-octabydroindolo[2,3-a]quinolizine]", "values": [
      {"measurement": "Ki", "setting": "alpha2A-adrenoceptor", "result": 210, "unit": "nM"},
      {"measurement": "Ki", "setting": "alpha2B-adrenoceptor", "result": 520, "unit": "nM"},
      {"measurement": "Ki", "setting": "alpha2C-adrenoceptor; [1]", "result": 75, "unit": "nM"}
    ]},
    {"smiles": "COC1CCN2CCc3c([nH]c4ccccc34)C2C1", "note": "(stereo not drawn) [Compound D, 2α-Methoxy-1,2,3,4,6,7,12,12bα-octahydro-indolo[2,3-a]quinolizine]", "values": [
      {"measurement": "Ki", "setting": "alpha2A-adrenoceptor", "result": 29, "unit": "nM"},
      {"measurement": "Ki", "setting": "alpha2B-adrenoceptor", "result": 81, "unit": "nM"},
      {"measurement": "Ki", "setting": "alpha2C-adrenoceptor; [1]", "result": 17, "unit": "nM"}
    ]},
    {"smiles": "C[C@@]1(O)CCCN2CCc3c([nH]c4ccccc34)[C@H]21", "note": "(relative stereo) [Compound H, 1α-Methyl-1,2,3,4,6,7,12,12bβ-octahydroindolo[2,3-a]quinolizin-1-ol]", "values": [
      {"measurement": "Ki", "setting": "alpha2A-adrenoceptor", "result": 280, "unit": "nM"},
      {"measurement": "Ki", "setting": "alpha2B-adrenoceptor", "result": 45, "unit": "nM"},
      {"measurement": "Ki", "setting": "alpha2C-adrenoceptor; [1]", "result": 23, "unit": "nM"}
    ]},
    {"smiles": "CCC1=C(C)CC2c3[nH]c4ccccc4c3CCN2C1", "note": "(stereo not shown) [Compound N, 3-Ethyl-2-methyl-1,4,6,7,12,12b-hexahydro-indolo[2,3-a]quinolizine]", "values": [
      {"measurement": "Ki", "setting": "alpha2A-adrenoceptor", "result": 130, "unit": "nM"},
      {"measurement": "Ki", "setting": "alpha2B-adrenoceptor", "result": 1110, "unit": "nM"},
      {"measurement": "Ki", "setting": "alpha2C-adrenoceptor; [1]", "result": 46, "unit": "nM"}
    ]},
    {"smiles": "c1ccc2c3c([nH]c2c1)C1CCCCCN1CC3", "note": "(stereo not shown) [Compound E, 2,3,4,5,7,8,13,13b-Octahydro-1H-azepino[1′,2′1,2]pyrido[3,4-b]indole]", "values": [
      {"measurement": "Ki", "setting": "alpha2A-adrenoceptor", "result": 30, "unit": "nM"},
      {"measurement": "Ki", "setting": "alpha2B-adrenoceptor", "result": 110, "unit": "nM"},
      {"measurement": "Ki", "setting": "alpha2C-adrenoceptor; [1]", "result": 26, "unit": "nM"}
    ]},
    {"smiles": "C1=CCN2CCc3c([nH]c4ccccc34)C2C1", "note": "(stereo not shown) [Compound I, 1,4,6,7,12,12b-Hexahdroindolo[2,3-a]quinolizine]", "values": [
      {"measurement": "Ki", "setting": "alpha2A-adrenoceptor", "result": 150, "unit": "nM"},
      {"measurement": "Ki", "setting": "alpha2B-adrenoceptor", "result": 460, "unit": "nM"},
      {"measurement": "Ki", "setting": "alpha2C-adrenoceptor", "result": 85, "unit": "nM"}
    ]},
    {"smiles": "OC[C@H]1CCCN2CCc3c([nH]c4ccccc34)[C@H]12", "note": "(relative stereo) [Compound O, (1β,2,3,4,6,7,12,12bα-Octahydroindolo’[2,3-a]quinolizin-1-yl)-methanol]", "values": [
      {"measurement": "Ki", "setting": "alpha2A-adrenoceptor", "result": 380, "unit": "nM"},
      {"measurement": "Ki", "setting": "alpha2B-adrenoceptor", "result": 270, "unit": "nM"},
      {"measurement": "Ki", "setting": "alpha2C-adrenoceptor; [1]", "result": 110, "unit": "nM"}
    ]},
    {"smiles": "C[C@@H]1CCCN2CCc3c(oc4ccccc34)[C@@H]12", "note": "(relative stereo) [Compound G, 1-Methyl-1α,3,4,6,11bβ-hexahydro-2H-11-oxa4a-aza-benzo[a]fluorene]", "values": [
      {"measurement": "Ki", "setting": "alpha2A-adrenoceptor", "result": 96, "unit": "nM"},
      {"measurement": "Ki", "setting": "alpha2C-adrenoceptor; [1]", "result": 22, "unit": "nM"}
    ]}
  ]
}
